In ChEMBL document CHEMBL1201862, “PubChem BioAssay data set” (2004) one finds IC50 and AC50 data, which are given here for 6 compounds.

Active and inactive are the calls of the source.

Experiment [1] concerns the target Ubiquitin carboxyl-terminal hydrolase BAP1 (Homo sapiens, UniProt Q92560). The experiment is described as follows: BAP1 deubiquitinase inhibitors, dose response, biochemical (AID 714). It is filed as functional.
Experiment [2] can be described thus: SK-MEL-5 parental cell viability reduction, dose response, orthogonal assay for MITF inhibitor project, CellTiter-Glo luminescence, dry powder, set 8 (AID 651586). It is filed as functional, cell-based.
A short description of experiment [3]: A375 melanoma cell cytotoxicity, dose response, counter-screen for MITF inhibitor project, CellTiter-Glo luminescence, dry powder, set 6 (AID 624488). It is filed as functional, cell-based. The settings on record: A-375. (In general: A counterscreen serves to expose hits that act by an unwanted route or on another target.)
Experiment [4] can be described thus: SK-MEL-5 parental line viability, dose response, MITF inhibitor project, cell-based, CellTiter-Glo, dry powder, set 6 (AID 624429). It is filed as functional. (In general: ATP-based viability assays read luminescence as a measure of living cells.)
Experiment [5] can be described thus: TRPM1 promoter luciferase reporter signal decrease, dose response, MITF inhibitor project, cell-based, SK-MEL-5, dry powder, set 9 (AID 651588). It is filed as functional. For orientation: A reporter such as luciferase makes a cellular process visible.
A short description of experiment [6]: MITF Measured in Cell-Based System Using Plate Reader - 2084-01_Inhibitor_Dose_DryPowder_Activity_Set7. It is filed as functional.
Experiment [7] can be described thus: MITF Measured in Cell-Based System Using Plate Reader - 2084-01_Inhibitor_Dose_DryPowder_Activity_Set6. It is filed as functional.
The nature of experiment [8]: MITF Orthogonal Assay: SK-MEL-5 CTG Assay Measured in Cell-Based System Using Plate Reader - 2084-02_Inhibitor_Dose_DryPowder_Activity_Set5. It is filed as functional.
Experiment [9] can be described thus: MITF Orthogonal Assay: MALME3 CTG Assay Measured in Cell-Based System Using Plate Reader - 2084-04_Inhibitor_Dose_DryPowder_Activity_Set6. It is filed as functional. The settings on record: MALME-3.
A short description of experiment [10]: A375 melanoma cell cytotoxicity, dose response, counter-screen for MITF inhibitor project, CellTiter-Glo luminescence, dry powder, set 7 (AID 624490). It is filed as functional, cell-based. The settings on record: A-375.
A short description of experiment [11]: MALME3 melanoma cell viability reduction, dose response, orthogonal assay for MITF inhibitor project, CellTiter-Glo luminescence, dry powder, set 5 (AID 651584). It is filed as functional, cell-based. The settings on record: MALME-3.
A short description of experiment [12]: A375 melanoma cell viability loss, dose response, counter-screen for MITF inhibitor project, CellTiter-Glo luminescence, dry powder, set 4 (AID 624364).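 Further: A375 melanoma cells are MITF independent so this is a counter screen.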 It is filed as functional, cell-based. The settings on record: A-375.
Experiment [13] concerns the target Glutathione-S-transferase (Schistosoma japonicum, UniProt Q26513). The experiment is described as follows: biotin-GST/anti-GST TR-FRET signal inhibitors, dose response, artefact control for Vif-APOBEC3G degradation inhibitor project, biochemical (AID 1117362). It is filed as functional.
A short description of experiment [14]: SNU-C1 cell viability reduction, dose response, CellTiter-Glo luminescence (AID 1117323). It is filed as functional, cell-based.
Experiment [15] can be described thus: HeLa 2N DNA content increase, dose response, cell-based, IC50 (AID 1117349). It is filed as functional.
Experiment [16] is described as follows: Concentration-dependent survival of SW480 colon cancer line, luminescence detection with CellTiter-Glo, half-maximal inhibitory concentration (AID 1117338). It is filed as functional.
Experiment [17] is described as follows: CellTiter-Glo luminescent dose response of DLD-1 viability loss (AID 1117352). It is filed as functional.
Experiment [18] in a line: cytotoxicity toward HCT116 cells – cell-based, CellTiter-Glo luminescence, IC50, dose response (AID 1117332). It is filed as functional. The settings on record: HCT-116.
Experiment [19] is described as follows: cytotoxicity toward HT-29 cells – cell-based, CellTiter-Glo luminescence, IC50, dose response (AID 1117330). It is filed as functional.
A short description of experiment [20]: HCT116 cell viability decrease, GSK3B pretreatment – CellTiter-Glo, IC50, dose response (AID 1117339). It is filed as functional. The settings on record: HCT-116.
Experiment [21] can be described thus: HepG2 cell cytotoxicity, dose response, cytotoxicity control, cherry-picked samples (AID 1159577). It is filed as functional, cell-based.
A short description of experiment [22]: HepG2 cell cytotoxicity, dose response, cytotoxicity control, plate reader, dry powder samples (AID 1159569).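 Further: inhibitor potency with signal falling toward the positive control level.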 It is filed as functional, cell-based.
Experiment [23] can be described thus: P. falciparum Dd2 growth inhibitors, dose response, SYBR Green, cherry-picked samples (AID 1159567). It is filed as functional, cell-based.
Experiment [24] in a line: P. falciparum Dd2 growth inhibitors, dose response, SYBR Green, dry powder samples, set 9 (AID 1159568). It is filed as functional, cell-based.
Experiment [25] is described as follows: P. falciparum 3D7-ScDHODH growth inhibitors, dose response, SYBR Green, dry powder samples (AID 1159570).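 Further: parasite growth measured after 72 hours of compound exposure.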 It is filed as functional, cell-based.
The nature of experiment [26]: P. falciparum Dd2 growth inhibitors, dose response, SYBR Green, dry powder samples (AID 1159566).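 Further: potency for growth inhibition with lower SYBR green DNA signal.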 It is filed as functional, cell-based.
A short description of experiment [27]: P. falciparum ATP4 D1247Y mutant growth inhibitors, dose response, NITD609-resistant line, SYBR Green, dry powder (AID 1159571).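 Further: parasites synchronized at ring stage by sorbitol before testing.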 It is filed as functional, cell-based.
Experiment [28] can be described thus: Plasmodium falciparum Dd2 Sybr green parasite growth Measured in Cell-Based and Microorganism Combination System Using Plate Reader - 2153-01_Inhibitor_Dose_DryPowder_Activity_Set3. It is filed as functional.
A short description of a further experiment: cells. It is filed as functional, cell-based. The settings on record: INS-1E.
Experiment [29] can be described thus: HeLa 4N DNA content increase, dose response, cell-based, IC50 (AID 1117351). It is filed as functional.
Experiment [30] is described as follows: Dose-response inhibition of insulin secretion in a rat insulinoma line at 5 mM glucose (AID 1117331). The settings on record: INS-1E. It is filed as functional, cell-based.

Glutathione-S-transferase, sequence (Q26513 whole entry): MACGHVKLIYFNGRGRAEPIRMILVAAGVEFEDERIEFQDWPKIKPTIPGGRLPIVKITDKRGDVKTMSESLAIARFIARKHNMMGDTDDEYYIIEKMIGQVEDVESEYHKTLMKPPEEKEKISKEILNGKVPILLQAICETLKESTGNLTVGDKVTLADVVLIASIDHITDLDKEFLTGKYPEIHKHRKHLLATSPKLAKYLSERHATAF
Ubiquitin carboxyl-terminal hydrolase BAP1, sequence (Q92560 whole entry): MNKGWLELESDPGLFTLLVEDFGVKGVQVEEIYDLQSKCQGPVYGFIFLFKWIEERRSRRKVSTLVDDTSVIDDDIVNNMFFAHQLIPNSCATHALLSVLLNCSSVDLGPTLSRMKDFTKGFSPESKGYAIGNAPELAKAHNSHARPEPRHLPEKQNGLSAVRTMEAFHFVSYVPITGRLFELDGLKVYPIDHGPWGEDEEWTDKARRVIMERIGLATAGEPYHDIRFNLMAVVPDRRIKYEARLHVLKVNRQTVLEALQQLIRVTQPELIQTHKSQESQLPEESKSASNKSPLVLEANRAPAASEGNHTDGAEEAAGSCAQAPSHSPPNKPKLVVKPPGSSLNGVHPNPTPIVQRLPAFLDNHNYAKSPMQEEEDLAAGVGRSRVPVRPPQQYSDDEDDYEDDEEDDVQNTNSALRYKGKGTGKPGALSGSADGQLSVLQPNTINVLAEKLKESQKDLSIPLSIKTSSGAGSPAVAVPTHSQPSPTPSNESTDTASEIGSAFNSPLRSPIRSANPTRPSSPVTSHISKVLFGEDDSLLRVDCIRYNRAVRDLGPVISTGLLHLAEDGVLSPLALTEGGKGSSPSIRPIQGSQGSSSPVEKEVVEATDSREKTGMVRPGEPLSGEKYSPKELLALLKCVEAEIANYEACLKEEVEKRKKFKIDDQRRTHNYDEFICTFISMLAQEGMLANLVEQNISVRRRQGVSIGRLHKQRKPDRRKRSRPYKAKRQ

Regarding `N#Cc1c(NC(=O)CSc2nnnn2C2CCCCC2)sc2c1CCCC2`, in experiment [1], the IC50 (as a rule, the point on the concentration scale where inhibition reaches its midpoint) is > 50 µM (not active).

On to `NC1=C(NS(=O)(=O)c2ccccc2)C(=O)c2ccccc2C1=O`, for which the AC50 – broadly, the concentration giving half of the maximal activity seen – in experiment [2] was 17.5 µM (active); in experiment [3], 54.6 µM (active); in experiment [4], 16.1 µM (active); in experiment [5], 15.8 µM (active); in [6] it was 4.7 µM (active); in experiment [7], 7 µM (active). Besides, the AC50 was 16.1 µM (active) in experiment [8]; 22.6 µM (active) in experiment [9]; > 70 µM (inactive) in [10]; 22.6 µM (active) in experiment [11]; > 70 µM (inactive) in experiment [12].

For the compound `COC(=O)/C(=N/Nc1ccccc1C)N1CCCc2ccccc21`, in experiment [13], the IC50 is 1.9 µM (active).

For the compound `CC(C)C[C@H](NC(=O)[C@H](Cc1ccccc1)NC(=O)c1cnccn1)B(O)O`, the IC50 was 0.0032 µM (active) in [14]; 0.0078 µM (active) in experiment [15]; 0.00513 µM (active) in experiment [16]; 0.00636 µM (active) in experiment [17]; 0.00365 µM (active) in experiment [18]; 0.00315 µM (active) in [19]. Besides, in experiment [20], the IC50 was 0.00241 µM (active).

As to `COc1ccc(-c2ccc([C@H]3[C@@H](C#N)N(C(=O)NC(C)C)[C@@H]3CO)cc2)cc1`, the AC50 in [21] is > 39 µM (inactive); in [22], 78 µM (active); in experiment [23] it was 0.725 µM (active); in [24] it was 0.604 µM (active); in experiment [25] it was 14.7 µM (active); in experiment [26], 0.472 µM (active). Further, the figures for the AC50 in experiment [27] and in experiment [28] were 0.528 µM (active) and 0.511 µM (active), respectively.

As for `CCN(CC)CCOc1ccccc1C(=O)CCc1ccccc1` [ETAFENONE], the IC50 was > 10 µM (inactive) in experiment [15], > 33.3 µM (inactive) in “cells”, > 10 µM (inactive) in [29] and 3.89 µM (active) in [30].
